# Calls of active or inactive are those of the source.
# Assays:
# Large T antigen = Large T antigen (Simian virus 40, UniProt P03070); assay type: functional, Betapolyomavirus macacae;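 further: Confirmatory-stage PubChem screen for compounds that inhibit SV40 T antigen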
# Streptokinase A = biological target: T1, Streptokinase A (Streptococcus pyogenes serotype M1, UniProt P10520); experiment: S. pyogenes streptokinase expression inhibitors, potency, dose response, plasminogen activation absorbance, OD405 (AID 1914); assay type: functional, Streptococcus pyogenes M1 GAS;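 further: secreted streptokinase activity via plasminogen activation per viability signal from cell pellet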
# T1 sequence (P10520 whole entry): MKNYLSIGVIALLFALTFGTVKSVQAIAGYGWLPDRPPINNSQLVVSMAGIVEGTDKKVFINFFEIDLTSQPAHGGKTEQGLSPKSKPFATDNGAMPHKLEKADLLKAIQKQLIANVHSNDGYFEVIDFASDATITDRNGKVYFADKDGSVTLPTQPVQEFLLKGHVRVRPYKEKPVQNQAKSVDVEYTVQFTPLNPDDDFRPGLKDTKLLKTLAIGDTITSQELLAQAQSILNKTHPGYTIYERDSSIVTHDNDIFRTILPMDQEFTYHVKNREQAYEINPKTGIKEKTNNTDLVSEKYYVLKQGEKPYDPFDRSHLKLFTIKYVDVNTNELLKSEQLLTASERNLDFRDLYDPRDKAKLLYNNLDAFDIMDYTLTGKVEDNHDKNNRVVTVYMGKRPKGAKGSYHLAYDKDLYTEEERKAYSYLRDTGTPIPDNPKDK
# [1] = biological target: T2, Polyadenylate-binding protein 1 (Homo sapiens, UniProt P11940); experiment: PABP1 MLLE–PAM2 interaction inhibitors, dose response, miRNA deadenylation inhibitor project, biochemical, fluorescence polarization, Cy5-PAM2 peptide, secondary (AID 602260); assay type: functional; conditions: read-out: IC50_Mean
# [2] = biological target: T2, Polyadenylate-binding protein 1; experiment: PABP1 MLLE–PAM2 binding inhibitor potency, dose response, biochemical, fluorescence polarization, FITC-PAM2 peptide (AID 602259); assay type: functional; conditions: read-out: IC50_Mean
# [3] = Luminescence Cell-Based Dose Confirmation HTS to Identify Activators of 5'UTR Stem-Loop Driven Alpha-Synuclein mRNA Translation in H4 Neuroglioblastoma Cells. [Related pubchem assays: 1829 (Project Summary), 1814 (Primary HTS)]; assay type: functional
# [4] = Luminescence Cell-Based Dose Response HTS to Identify Activators of Luciferase Translation or Activity in H4 […] Cells. [Related pubchem assays: 1829 (Project Summary), 1814 (Primary HTS)]; assay type: functional
# H4 = experiment: Luminescence Cell-Based Dose Response HTS to Identify Activators of 5'UTR Stem-Loop Driven Prion Protein mRNA Translation in H4 Neuroglioblastoma Cells. [Related pubchem assays: 1829 (Project Summary), 1814 (Primary HTS)]; assay type: functional; conditions: Homo sapiens
# [5] = biological target: T3, Ubiquitin-conjugating enzyme E2 N (Homo sapiens, UniProt P61088); assay type: functional;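 further: Dose-response confirmation in a TR-FRET assay detecting UBC13-driven polyubiquitin chain formation, inhibition measured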
# T3 sequence (P61088 whole entry): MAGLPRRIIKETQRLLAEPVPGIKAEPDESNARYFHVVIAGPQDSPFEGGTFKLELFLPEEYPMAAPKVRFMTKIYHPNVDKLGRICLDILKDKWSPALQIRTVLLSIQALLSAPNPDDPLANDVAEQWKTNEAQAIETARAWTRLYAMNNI
# INS1 = experiment: beta cell apoptosis inhibitors, cytokine rescue, dose response, luminescence, retest (AID 449756); assay type: functional, cell-based; conditions: Rattus norvegicus;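 further: cell death triggered by IL-1 beta plus TNF-alpha plus IFN-gamma mixture; protective hits raise ATP signal compared with cytokine alone wells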
# [6] = inhibitors of HIV Env-driven cell fusion, dose response, cherry-pick (AID 652057); assay type: functional, cell-based
# [7] = ZM109 Env clade C HIV-1 fusion inhibitors, dose response, HeLa effector, CEM target cells, luciferase, cherry-pick (AID 652058); assay type: functional, cell-based
# [8] = off-target signal loss in HeLa-CEM21 co-culture – HeLa F-luc CTL cells, cherry-picked, counter-screen for HIV-1 Env fusion inhibitor project, dose response (AID 652040); assay type: functional, cell-based;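 further: potency for signal decrease marking cytotoxic or nonspecific inhibition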
# [9] = inhibitors of clade B AD8 Env fusion, dose response, cell-based, cherry-pick (AID 652062); assay type: functional;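 further: luciferase signal from cell-cell fusion driven by HIV-1 clade B AD8 Env; potency is for inhibitors of fusion seen as a drop in luminescence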
# [10] = inhibitors of firefly luciferase expression or activity, dose response, H4 neuroglioma cells, luminescence (AID 1990); assay type: functional, cell-based
# [11] = Luminescence Cell-Based Dose Response HTS to Identify Inhibitors of 5'UTR Stem-Loop Driven Prion Protein mRNA Translation in H4 Neuroglioblastoma Cells. [Related pubchem assays: 1827 (Project Summary), 1813 (Primary HTS)]; assay type: functional
# [12] = inhibitors of SNCA 5'UTR-driven reporter translation, confirmation, H4 neuroglioma cells, luminescence (AID 1988); assay type: functional, cell-based
# [13] = Luminescence Cell-Based Dose Retest to Confirm Inhibitors of Cancer Stem Cells. [Related pubchem assays (depositor defined):AID2717, AID2721]; assay type: functional; conditions: Homo sapiens
# [14] = biological target: T4, Heat shock factor protein 1 (Mus musculus, UniProt P38532); experiment: inhibition of MG132-induced HSE-luciferase signal, confirmation, cell-based, NIH3T3, luminescence, dose retest (AID 2382); assay type: functional;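 further: NIH3T3 fibroblasts with HSF1-driven luciferase reporter stressed by proteasome inhibitor MG132; luminescence from HSF1-driven luciferase expression after 8 hours of MG132 stress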
# T4 sequence (P38532 whole entry): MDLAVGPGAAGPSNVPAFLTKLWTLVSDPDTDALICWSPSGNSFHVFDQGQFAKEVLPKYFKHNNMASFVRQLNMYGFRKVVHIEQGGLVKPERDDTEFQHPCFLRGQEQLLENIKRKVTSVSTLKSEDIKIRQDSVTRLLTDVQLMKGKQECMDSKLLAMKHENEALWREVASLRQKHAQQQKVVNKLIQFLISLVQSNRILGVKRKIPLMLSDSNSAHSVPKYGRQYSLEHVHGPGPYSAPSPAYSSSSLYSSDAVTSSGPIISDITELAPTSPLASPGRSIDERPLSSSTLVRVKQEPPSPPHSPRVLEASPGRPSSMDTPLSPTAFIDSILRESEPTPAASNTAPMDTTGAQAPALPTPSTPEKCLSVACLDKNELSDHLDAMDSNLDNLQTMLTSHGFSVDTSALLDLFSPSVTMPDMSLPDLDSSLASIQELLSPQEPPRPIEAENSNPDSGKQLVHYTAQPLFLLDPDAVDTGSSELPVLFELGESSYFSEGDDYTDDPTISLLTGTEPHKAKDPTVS
# [15] = biological target: T5, Rac GTPase-activating protein 1 (Homo sapiens, UniProt Q9H0H5); experiment: MgcRacGAP GTPase-activating activity inhibitors, confirmation, biochemical, ADP Hunter fluorescence, primary and confirmatory (AID 624330); assay type: functional
# T5 sequence (Q9H0H5 whole entry): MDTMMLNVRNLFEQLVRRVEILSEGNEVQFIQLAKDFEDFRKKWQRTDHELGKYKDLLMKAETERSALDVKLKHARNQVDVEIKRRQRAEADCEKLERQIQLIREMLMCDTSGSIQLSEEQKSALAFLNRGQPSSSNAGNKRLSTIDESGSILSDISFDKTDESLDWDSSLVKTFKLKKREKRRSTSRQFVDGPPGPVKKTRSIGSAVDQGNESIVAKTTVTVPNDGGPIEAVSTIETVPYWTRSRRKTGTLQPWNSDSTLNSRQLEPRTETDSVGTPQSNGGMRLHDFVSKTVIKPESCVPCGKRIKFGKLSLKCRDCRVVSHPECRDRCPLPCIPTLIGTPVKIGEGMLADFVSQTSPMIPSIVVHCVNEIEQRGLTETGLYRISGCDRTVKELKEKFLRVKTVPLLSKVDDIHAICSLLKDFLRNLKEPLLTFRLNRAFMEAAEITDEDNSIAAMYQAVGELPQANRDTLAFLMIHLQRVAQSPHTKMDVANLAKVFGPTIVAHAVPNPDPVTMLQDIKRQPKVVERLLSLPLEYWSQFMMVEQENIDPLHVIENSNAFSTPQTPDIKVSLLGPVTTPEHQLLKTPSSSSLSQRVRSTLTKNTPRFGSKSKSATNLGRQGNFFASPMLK
# [16] = P. falciparum Dd2 growth inhibitors, dose response, SYBR Green, cherry-picked samples (AID 1159567); assay type: functional, cell-based
# T2 sequence (P11940 whole entry): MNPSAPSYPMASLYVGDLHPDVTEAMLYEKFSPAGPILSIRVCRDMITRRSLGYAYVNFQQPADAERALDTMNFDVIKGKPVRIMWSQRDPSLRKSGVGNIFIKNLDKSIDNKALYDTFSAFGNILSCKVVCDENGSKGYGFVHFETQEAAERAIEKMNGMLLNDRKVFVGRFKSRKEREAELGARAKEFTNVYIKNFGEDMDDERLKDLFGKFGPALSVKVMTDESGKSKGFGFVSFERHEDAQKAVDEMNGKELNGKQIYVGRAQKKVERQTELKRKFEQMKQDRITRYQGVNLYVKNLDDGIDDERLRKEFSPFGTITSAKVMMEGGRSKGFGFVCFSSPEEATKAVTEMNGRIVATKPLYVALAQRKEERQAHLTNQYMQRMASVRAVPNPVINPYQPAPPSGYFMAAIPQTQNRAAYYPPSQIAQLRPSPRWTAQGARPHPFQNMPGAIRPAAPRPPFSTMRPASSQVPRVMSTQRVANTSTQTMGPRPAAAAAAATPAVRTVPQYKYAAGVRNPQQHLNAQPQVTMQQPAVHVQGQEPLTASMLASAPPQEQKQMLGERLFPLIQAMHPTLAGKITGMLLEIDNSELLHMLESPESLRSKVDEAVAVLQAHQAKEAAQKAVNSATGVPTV
# Chain of Large T antigen (P03070 whole entry): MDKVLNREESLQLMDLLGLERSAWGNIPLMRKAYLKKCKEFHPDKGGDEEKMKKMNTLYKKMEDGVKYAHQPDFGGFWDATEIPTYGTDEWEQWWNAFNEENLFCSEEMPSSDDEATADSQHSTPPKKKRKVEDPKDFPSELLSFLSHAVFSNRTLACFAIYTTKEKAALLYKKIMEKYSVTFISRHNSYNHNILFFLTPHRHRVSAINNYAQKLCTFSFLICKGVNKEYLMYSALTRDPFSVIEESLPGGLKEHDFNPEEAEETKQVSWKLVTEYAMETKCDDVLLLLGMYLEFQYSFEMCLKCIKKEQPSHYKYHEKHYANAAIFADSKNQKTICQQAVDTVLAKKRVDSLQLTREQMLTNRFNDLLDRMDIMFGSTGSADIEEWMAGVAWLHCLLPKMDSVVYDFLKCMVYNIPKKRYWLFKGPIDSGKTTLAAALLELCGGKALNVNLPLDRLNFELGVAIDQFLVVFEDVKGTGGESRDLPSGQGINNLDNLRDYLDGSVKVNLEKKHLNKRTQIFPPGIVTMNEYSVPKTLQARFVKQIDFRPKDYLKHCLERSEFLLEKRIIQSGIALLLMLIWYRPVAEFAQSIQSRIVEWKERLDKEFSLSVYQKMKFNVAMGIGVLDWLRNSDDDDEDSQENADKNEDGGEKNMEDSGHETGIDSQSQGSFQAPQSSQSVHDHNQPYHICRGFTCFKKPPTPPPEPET
smiles,measurement,setting,value
ClCC1=Nc2cccc3cccc(c23)N1,IC50,Large T antigen,10 µM (active)
CC(=O)c1ccc(NC(=S)Nc2ccc(Br)c(Cl)c2)cc1,EC50,Streptokinase A,> 150 µM (not active)
same,IC50,[1],> 66 µM (inactive)
same,IC50,[2],> 66 µM (inactive)
O=C(NC(=S)Nc1ccc(O)cc1)c1cncc(Br)c1,IC50,Large T antigen,6.41 µM (active)
COc1cc(C(c2c(C)n[nH]c2O)c2c(C)n[nH]c2O)ccc1OC(=O)c1cccc([N+](=O)[O-])c1,IC50,Large T antigen,> 100 µM (active)
COc1ccc(NC(=O)Nc2cccc3cccnc23)cc1,EC50,[3],21.7 µM (active)
same,EC50,[4],5.48 µM (active)
same,EC50,H4,21.2 µM (active)
O=C1C(CSCc2ccccc2)NC(=S)N1c1ccccc1 (stereo not given),EC50,[3],> 120 µM (not active)
same,EC50,[4],> 120 µM (not active)
same,EC50,H4,> 120 µM (not active)
CCOc1ccc(C2CC(c3ccc(CC)cc3)Nc3nc(N)nn32)cc1 (stereo not given),EC50,[3],> 120 µM (not active)
same,EC50,[4],10.5 µM (active)
same,EC50,H4,19.7 µM (active)
CCc1ccc(S(=O)(=O)N=C(S)NC2CCCCC2)cc1,IC50,[1],> 66 µM (inactive)
same,IC50,[2],> 66 µM (inactive)
CN1C(=O)/C(=C2/C=CC=CN2C)OC1=S,IC50,[1],> 66 µM (inactive)
same,IC50,[2],> 66 µM (inactive)
CCC(=O)NC(c1cccs1)c1cc(Cl)c2ccccc2c1O (stereo not given),IC50,[5],> 20 µM (inactive)
OCCN1CCN(CC/C=C2/c3ccccc3Sc3ccc(Cl)cc32)CC1,IC50,[5],> 20 µM (inactive)
Fc1ccc(CN(Cc2ccccc2)C(c2cccs2)c2nnnn2C2CCCCC2)cc1 (stereo not given),AC50,INS1,6.47 µM (active)
CCOC(=O)c1cc(O)n2c(n1)nc1ccccc12,EC50,[3],15.8 µM (active)
same,EC50,[4],11.4 µM (active)
same,EC50,H4,20.4 µM (active)
O=C(CSc1nnc(C2COc3ccccc3O2)o1)N1CCCC1 (stereo not given),IC50,[1],> 66 µM (inactive)
same,IC50,[2],> 66 µM (inactive)
CCc1ccc(-c2cn3nc(C)c(C)nc3n2)cc1,AC50,[6],3.94 µM (active)
same,AC50,[7],29.3 µM (active)
same,AC50,[8],11 µM (active)
same,AC50,[9],6.35 µM (active)
CC(=O)c1c(C)oc2ccc(N(C(C)=O)S(=O)(=O)c3cccc4cccnc34)cc12,AC50,INS1,3.85 µM (active)
CCCCCc1cc(=O)oc2c(C(CCN3CCCC(C)C3)c3cc(OC)c(OC)c(OC)c3)c(OC)cc(OC)c12 (stereo not given),EC50,[10],> 120 µM (not active)
same,EC50,[11],> 120 µM (not active)
same,EC50,[12],> 120 µM (not active)
same,AC50,[13],6.25 µM (active)
same,AC50,INS1,8.07 µM (active)
O=C(CSc1c[nH]nn1)Nc1ccc(O)c(C(=O)O)c1,EC50,[14],> 195 µM (not active)
same,IC50,[1],> 66 µM (inactive)
same,IC50,[2],> 66 µM (inactive)
COc1ccc(CN2C(=O)NC(=O)/C(=C/c3ccoc3)C2=O)cc1,IC50,Large T antigen,36.9 µM (active)
CS(=O)(=O)N1CCN(C(=O)C(Sc2ccccc2)c2ccccc2)CC1 (stereo not given),IC50,[1],> 66 µM (inactive)
same,IC50,[2],> 66 µM (inactive)
COc1ccnc2c1c(=O)n(Cc1cccc(F)c1)c(=O)n2C,IC50,[5],> 20 µM (inactive)
CC(C)(COC(=O)C(c1ccccc1)c1ccccc1)CN1CCOCC1,AC50,[6],4.96 µM (active)
same,AC50,[7],2.42 µM (active)
same,AC50,[8],4.01 µM (active)
same,AC50,[9],1.83 µM (active)
O=C(CCCOc1ccc(Cl)cc1Cl)Nc1cc(S(=O)(=O)N2CCOCC2)ccc1N1CCOCC1,AC50,[6],3.23 µM (active)
same,AC50,[7],11.8 µM (active)
same,AC50,[8],6.33 µM (active)
same,AC50,[9],15.8 µM (active)
Cc1ccc(S(=O)(=O)N2CCCCC2)cc1C(=O)NCCC1=CCCCC1,AC50,[6],3.71 µM (active)
same,AC50,[7],5.36 µM (active)
same,AC50,[8],7.03 µM (active)
same,AC50,[9],17.1 µM (active)
COc1ccc2[nH]c3c(=O)n(CCCCC(=O)N4CCC(C(N)=O)CC4)c(=S)[nH]c3c2c1,IC50,[1],> 66 µM (inactive)
same,IC50,[2],> 66 µM (inactive)
same,IC50,[15],55.4 µM (active)
C[C@H](CO)N1C[C@H](C)[C@H](CN(C)C(=O)Cc2ccccc2)OCc2ccccc2-c2c(n(C)c3ccccc23)C1=O,AC50,[6],< 0.26 µM (active)
same,AC50,[7],< 0.26 µM (active)
same,AC50,[9],< 0.26 µM (active)
CC(C)C[C@@H](CN(C)N=O)N(C[C@H](Cc1ccccc1)N(CCc1ccccc1)N=O)N=O,AC50,[6],4.34 µM (active)
same,AC50,[7],5.62 µM (active)
same,AC50,[8],7.74 µM (active)
same,AC50,[9],7.36 µM (active)
CC(C)[C@H](CN(N=O)[C@@H](Cc1ccccc1)CN(C)N=O)N(CCc1ccccc1)N=O,AC50,[6],5.66 µM (active)
same,AC50,[7],12.3 µM (active)
same,AC50,[8],10.8 µM (active)
same,AC50,[9],15.5 µM (active)
CCCOc1ccc2ccccc2c1/C=N/n1cnnc1,AC50,[6],24.8 µM (active)
same,AC50,[7],4.27 µM (active)
same,AC50,[8],25.6 µM (active)
same,AC50,[9],18.5 µM (active)
COc1ccc(O)c(/C=N/NC(=O)c2cccc(N3CCCC3=O)c2)c1,AC50,INS1,3.55 µM (active)
COc1cc(/C=N/n2cnnc2)ccc1OC(=O)c1ccncc1,IC50,Large T antigen,75 µM (active)
same,IC50,[15],31 µM (active)
CCCN(C)C[C@@H]1Oc2cc(C#Cc3ccncc3)ccc2S(=O)(=O)N([C@H](C)CO)C[C@@H]1C,AC50,[16],6.76 µM (active)
O=C(C1CCC1)N1CC(=O)N2[C@H](CO)[C@@H](c3ccc(C#CCc4ccccc4)cc3)[C@H]2C1,AC50,[16],9.44 µM (active)
C/C=C/c1ccc([C@H]2[C@@H](CO)N(C(=O)C3CCCC3)[C@H]2CNCCC)cc1,AC50,[16],4.85 µM (active)
